Experimental data: US10391095B2, “DNA-PK inhibitors” (Vertex Pharmaceuticals Incorporated, priority 2012, dated 2019)

Molecular target: DNA-PK (Homo sapiens, UniProt P78527)
Assay: DNA-PK inhibition assay (radiometric, 33P-ATP)
Type: biochemical
Conditions: 100 μM ATP, competitive tight-binding fit
Method: Compounds were screened for their ability to inhibit DNA-PK kinase using a standard radiometric assay. Briefly, in this kinase assay the transfer of the terminal ^33P-phosphate in ^33P-ATP to a peptide substrate is interrogated. The assay was carried out in 384-well plates to a final volume of 50 μL per well containing approximately 6 nM DNA-PK, 50 mM HEPES (pH 7.5), 10 mM MgCl2, 25 mM NaCl, 0.01% BSA, 1 mM DTT, 10 μg/mL sheared double-stranded DNA (obtained from Sigma), 0.8 mg/mL DNA-PK peptide ([…] obtained from American Peptide), and 100 μM ATP. Accordingly, compounds of the invention were dissolved in DMSO to make 10 mM initial stock solutions. Serial dilutions in DMSO were then made to obtain the final solutions for the assay. A 0.75 μL aliquot of DMSO or inhibitor in DMSO was added to each well, followed by the addition of ATP substrate solution containing ^33P-ATP (obtained from Perkin Elmer). The reaction was started by the addition of DNA-PK, peptide and ds-DNA. After 45 min, the reaction was quenched with 25 μL of 5% phosphoric acid. The reaction mixture was transferred to MultiScreen HTS 384-well PH plates (obtained from Millipore), allowed to bind for one hour, and washed three times with 1% phosphoric acid. Following the addition of 50 μL of Ultima Gold™ high efficiency scintillant (obtained from Perkin Elmer), the samples were counted in a Packard TopCount NXT Microplate Scintillation and Luminescence Counter (Packard BioScience). The Ki values were calculated using Microsoft Excel Solver macros to fit the data to the kinetic model for competitive tight-binding inhibition.

Row | Compound | Ki [nM]
1 | COc1ccccc1CCNc1cc(-c2ccc3c(cnn3C)c2)ncn1 [Compound 79] | < 30
2 | CNC(=O)c1ccc([C@H](C)CNc2cc(-c3ccc4c(c3)OCC(=O)N4)ncn2)c(OC)c1 [Compound 314] | < 30
3 | CNC(=O)c1ccnc2c([C@H](C)CNc3cc(-c4cnc(OC)c(OC)c4)ncn3)ccc(F)c12 [Compound 906] | < 30
4 | COc1ccccc1[C@H](C)CNc1cc(-c2ccnc(-c3ccnc(F)c3)c2)ncn1 [Compound 105] | < 30
5 | Cc1ccc(-c2cc(NCC(C)c3cccc4nc(C)c(C)nc34)ncn2)cn1 (centres unmarked) [Compound 434] | < 30
6 | CNC(=O)c1ccc([C@H](C)CNc2cc(-c3ccc(NC(C)CO)nc3)ncn2)c(OC)c1 (single isomer, unassigned) [Compound 357] | < 30
7 | COc1ccccc1[C@H](C)CNc1cc(-c2ccnc(NCCSC)c2)ncn1 [Compound 210] | < 30
8 | CNC(=O)c1ccc([C@H](C)CNc2cc(-c3ccc(C)nc3)ncn2)c(OC2CCC2)c1 [Compound 478] | < 30
9 | CNC(=O)c1ccc([C@H](C)CNc2cc(-c3ccc4[nH]c(=O)[nH]c4c3)ncn2)c(OC)c1 [Compound 315] | < 30
10 | CNC(=O)c1ccc([C@H](C)CNc2cc(-c3ccc(NC4CCN(C)CC4)nc3)ncn2)c(OC)c1 [Compound 348] | < 30
11 | COc1ccc(C(C)CNc2cc(-c3ccc(C)nc3)ncn2)c(OC)n1 (centres unmarked) [Compound 466] | < 30
12 | CCNc1ccc(-c2cc(NC[C@@H](C)c3cc(C)nc4c3OCC4)ncn2)cn1 [Compound 575] | < 30
13 | C[C@H](CNc1cc(-c2cnc3c(cnn3C3CN(C(=O)OC(C)(C)C)C3)c2)ncn1)c1ccnc2c1OCCO2 [Compound 526] | < 30
14 | COc1cc(C(N)=O)ccc1C(C)CNc1cc(-c2ccc(C)nc2)ncn1 (centres unmarked) [Compound 122] | < 30
15 | Cc1ccc(-c2cc(NC[C@@H](C)c3cccc4c3OCCN4)ncn2)cn1 [Compound 513] | < 30
16 | CC(CNc1cc(-c2cnc3c(cnn3CC3CC3)c2)ncn1)c1ccccc1OC1COC1 (centres unmarked) [Compound 217] | < 30

Row | Compound | Ki [nM]
17 | COc1ccccc1[C@H](C)CNc1cc(-c2cnc3c(ccn3C)c2)ncn1 [Compound 173] | < 30
18 | COc1ccccc1[C@H](C)CNc1cc(-c2ccc(NCC#N)nc2)ncn1 [Compound 202] | < 30
19 | CNC(=O)c1ccc([C@H](C)CNc2cc(-c3ccc4c(cnn4C4COC4)c3)ncn2)c(OC)c1 [Compound 243] | < 30
20 | CC(CNc1cc(-c2cnc3c(cnn3C3COC3)c2)ncn1)c1cncc2c1OCC2 (centres unmarked) [Compound 420] | < 30
21 | CNC(=O)c1ccc([C@H](C)CNc2cc(-c3ccc(N(C)C)nc3)ncn2)c(OC)c1 [Compound 359] | < 30
22 | Cc1ccc(-c2cc(NCC(C)c3cccc4cccnc34)ncn2)cn1 (centres unmarked) [Compound 235] | < 30
23 | CNC(=O)c1ccc([C@H](C)CNc2cc(-c3cnc4c(c3)OCCN4C)ncn2)c(OC)c1 [Compound 490] | < 30
24 | CNC(=O)c1ccc([C@H](C)CNc2cc(-c3cnc4c(cnn4CC(C)(C)O)c3)ncn2)c(OC)c1 [Compound 285] | < 30
25 | COc1ccccc1[C@H](C)CNc1cc(-c2ccc(F)nc2)ncn1 [Compound 96] | < 30
26 | Cc1ccc(-c2cc(NCC(C)c3ccnc4c3OCCN4)ncn2)cn1 (centres unmarked) [Compound 648] | < 30
27 | CNC(=O)c1ccc(C(C)CNc2cc(-c3cnc4c(cnn4CC(=O)OC)c3)ncn2)c(OC)c1 (centres unmarked) [Compound 273] | < 30
28 | COc1ccccc1[C@H](C)CNc1cc(-c2ccc(NCC3(O)CC3)nc2)ncn1 [Compound 204] | < 30
29 | COCCn1ncc2cc(-c3cc(NCC(C)c4ccccc4OC4COC4)ncn3)cnc21 (centres unmarked) [Compound 215] | < 30
30 | CNC(=O)c1ccc([C@H](C)CNc2cc(-c3cnc4c(cnn4C4CCN(C)CC4)c3)ncn2)c(OC)c1 [Compound 286] | < 30
31 | CNCCCNc1cc(-c2cc(NC[C@@H](C)c3ccccc3OC)ncn2)ccn1 [Compound 209] | < 30

Results, then the molecule that gave them:

Row | Ki [nM] | Compound
32 | < 30 | CNC(=O)c1ccnc2c([C@H](C)CNc3cc(-c4cnc(OC)c(COC)c4)ncn3)cccc12 [Compound 944]
33 | < 30 | CNC(=O)c1ccc(-c2cc(NC[C@@H](C)c3cccc4c(C(=O)NC)ccnc34)ncn2)cc1F [Compound 807]
34 | < 30 | Cc1ccc(-c2cc(NCC(C)c3ccccc3OC3COC3)ncn2)cn1 (centres unmarked) [Compound 101]
35 | < 30 | CNC(=O)c1ccnc2c([C@H](C)CNc3cc(-c4ccc5c(c4)CNC5=O)ncn3)cccc12 [Compound 758]
36 | < 30 | CCNc1ncc(-c2cc(NC[C@@H](C)c3cccc4c(C(=O)NC)ccnc34)ncn2)cn1 [Compound 942]
37 | < 30 | CNC(=O)c1ccnc2c([C@H](C)CNc3cc(-c4cncc(CO)c4)ncn3)cccc12 [Compound 956]
38 | < 30 | CNC(=O)c1ccnc2c([C@H](C)CNc3cc(-c4ccn(C)c(=O)c4)ncn3)cccc12 [Compound 656]
39 | < 30 | CNC(=O)c1ccnc2c([C@H](C)CNc3cc(-c4ccnc(C5CC5)c4)ncn3)ccc(F)c12 [Compound 914]
40 | < 30 | CNC(=O)c1ccnc2c([C@H](C)CNc3cc(-c4cnc(N5CCOCC5)c(C)c4)ncn3)cccc12 [Compound 880]
41 | < 30 | Cc1ncc(-c2cc(NC[C@@H](C)c3cccc4c(=O)n(C)cnc34)ncn2)cn1 [Compound 697]
42 | < 30 | CCS(=O)(=O)c1ccc(-c2cc(NC[C@@H](C)c3cccc4c(C(=O)NC)ccnc34)ncn2)cc1 [Compound 676]
43 | < 30 | CNC(=O)c1ccnc2c([C@H](C)CNc3cc(-c4ccc(C(=O)N5CCN(C)CC5)cc4)ncn3)cccc12 [Compound 770]
44 | < 30 | CNC(=O)c1ccnc2c([C@H](C)CNc3cc(-c4ccc(C(=O)OC)s4)ncn3)cccc12 [Compound 774]
45 | < 30 | CNC(=O)c1ccnc2c([C@H](C)CNc3cc(-c4cnc(OC5COC5)nc4)ncn3)cccc12 [Compound 666]
46 | < 30 | CNC(=O)c1ccnc2c([C@H](C)CNc3cc(-c4cnc(C#N)c(OC)c4)ncn3)ccc(F)c12 [Compound 923]
47 | < 30 | CNC(=O)c1ccnc2c([C@H](C)CNc3cc(-c4ccc(N5CCN(C(C)=O)CC5)nc4)ncn3)cccc12 [Compound 614]
48 | < 30 | CNC(=O)c1ccnc2c([C@H](C)CNc3cc(-c4ccc(C)cc4)ncn3)cccc12 [Compound 671]
49 | < 30 | CNC(=O)c1ccnc2c([C@H](C)CNc3cc(-c4ccc(C(C)O)nc4)ncn3)cccc12 (some centres unmarked) [Compound 730]
50 | < 30 | CNC(=O)c1ccnc2c([C@H](C)CNc3cc(-c4cnc(OC)s4)ncn3)cccc12 [Compound 779]

Row | Ki [nM] | Compound
51 | < 30 | CNC(=O)c1c(F)cnc2c([C@H](C)CNc3cc(-c4cnc(OC)c(OC)c4)ncn3)cccc12 [Compound 898]
52 | < 30 | CNC(=O)c1ccnc2c([C@H](C)CNc3cc(-c4ccc(C5(C#N)CC5)cc4)ncn3)cccc12 [Compound 681]
53 | < 30 | CNC(=O)c1ccnc2c([C@H](C)CNc3cc(-c4ccc(C#N)nc4)ncn3)cccc12 [Compound 613]
54 | < 30 | CNC(=O)c1ccnc2c([C@H](C)CNc3cc(-c4ccc(C5CCC5)nc4)ncn3)ccc(F)c12 [Compound 850]
55 | < 30 | CNC(=O)c1ccnc2c([C@H](C)CNc3cc(-c4ccc(NC(C)=O)cc4)ncn3)cccc12 [Compound 749]
56 | < 30 | CNC(=O)c1ccnc2c([C@H](C)CNc3cc(-c4ccc(NCCn5cccc5)nc4)ncn3)cccc12 [Compound 702]
57 | < 30 | CNC(=O)c1ccnc2c([C@H](C)CNc3cc(-c4cnc(OC)c(CO)c4)ncn3)cccc12 [Compound 882]
58 | < 30 | CNC(=O)c1ccc(C(C)CNc2cc(-c3ccc(OC4COC4)nc3)ncn2)c(OC)c1 (centres unmarked) [Compound 307]
59 | < 30 | Cc1ccc(-c2cc(NCC(C)c3cccc4c(C)ncnc34)ncn2)cn1 (centres unmarked) [Compound 838]
60 | < 30 | CNC(=O)c1ccnc2c([C@H](C)CNc3cc(-c4cncc(N)c4)ncn3)cccc12 [Compound 874]
61 | < 30 | CCNc1ncc(-c2cc(NC[C@@H](C)c3ccc(F)c4c(C(=O)NC)ccnc34)ncn2)cn1 [Compound 931]
62 | < 30 | [2H]c1nc(C)nc([2H])c1-c1cc(NC[C@@H](C)c2cccc3c(C(=O)NC)c(F)cnc23)ncn1 [Compound 862]
63 | < 30 | CNC(=O)c1ccnc2c([C@H](C)CNc3cc(-c4ccc(N5CCC(C(C)(C)O)CC5)nc4)ncn3)cccc12 [Compound 734]
64 | < 30 | CNC(=O)c1ccnc2c([C@H](C)CNc3cc(-c4ccc(N5CCOCC5)nc4)ncn3)cccc12 [Compound 641]
65 | < 30 | CNC(=O)c1ccnc2c([C@H](C)CNc3cc(-c4ccc(NCC(=O)N(C)C)nc4)ncn3)cccc12 [Compound 633]
66 | < 30 | CNC(=O)c1c(F)cnc2c([C@H](C)CNc3cc(-c4ccc(C#N)nc4)ncn3)cccc12 [Compound 901]
67 | < 30 | CNC(=O)c1ccnc2c([C@H](C)CNc3cc(-c4ccc(C(C)(C)O)nc4)ncn3)ccc(F)c12 [Compound 865]
68 | < 30 | CNC(=O)c1ccnc2c([C@H](C)CNc3cc(-c4ccnc(C)c4)ncn3)cccc12 [Compound 771]
